In one experiment the target is T1, WT CBL-B (36-427) (Homo sapiens, UniProt Q13191).
T1 construct: N-terminal biotinylated WT CBL-B (36-427) and C-CBL (46-435) were captured on a streptavidin (SA) coated sensor chip
The experiment is described as follows: Surface Plasmon Resonance (SPR) assay, binding affinity and kinetics, CBL-B. As to conditions: SPR at 10° C., biotinylated WT CBL-B (36-427) on streptavidin chip; geometric mean; read-out: CBL-B SPR Kd (nM) GMean. In outline: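 SPR kinetics at 10° C, run either single-cycle (0.001–1 μM, 3-fold, 6 points, 120 s on, >5400 s off) or multi-cycle (10 points, 2-fold, top 10 or 100 μM, 90 s on). Proteins were N-biotinylated CBL-B (36-427) and C-CBL (46-435) on SA surfaces, in pH 7.2 HEPES, 2% DMSO.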

Another experiment concerns the target T2, C-CBL (residues 46-435) (Homo sapiens, UniProt P22681).
T2 construct: Purified CBL-B (residues 36-427) and C-CBL (residues 46-435) proteins from baculovirus-infected insect cells; made in house; host or cells: baculovirus-infected insect cells
T2 sequence (P22681 46-435): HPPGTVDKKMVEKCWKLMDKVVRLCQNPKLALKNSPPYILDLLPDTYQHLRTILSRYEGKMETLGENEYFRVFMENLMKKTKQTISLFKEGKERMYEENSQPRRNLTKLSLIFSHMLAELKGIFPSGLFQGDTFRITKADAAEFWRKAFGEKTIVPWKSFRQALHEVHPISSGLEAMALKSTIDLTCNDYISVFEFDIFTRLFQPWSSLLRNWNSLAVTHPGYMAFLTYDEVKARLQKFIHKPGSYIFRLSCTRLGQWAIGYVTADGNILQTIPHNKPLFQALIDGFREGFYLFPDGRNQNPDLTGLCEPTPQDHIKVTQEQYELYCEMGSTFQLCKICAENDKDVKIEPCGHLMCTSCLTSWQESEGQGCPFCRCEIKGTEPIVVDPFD
Kind of experiment: Ligand Displacement Assay (LDA), HTRF competitive binding against BODIPY-labeled fluorescent tracer, C-CBL. As to conditions: geometric mean of the number of tests, read-out: C-CBL Ki (nM) GMean. In outline: (§1)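 First, the insect-cell-expressed protein is biotinylated at its amino-terminal AviTag with BirA and coupled to SA-Tb. Next, the tracer KD is determined for each protein. Finally, compounds are titrated three-fold in duplicate […], at 2% DMSO, and Ki is reported as a geometric mean.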

A further experiment addresses T3, CBL-B (residues 36-427) (Homo sapiens, UniProt Q13191).
T3 construct: Purified CBL-B (residues 36-427) and C-CBL (residues 46-435) proteins from baculovirus-infected insect cells; made in house; host or cells: baculovirus-infected insect cells
The experiment is described as follows: Ligand Displacement Assay (LDA), HTRF competitive binding against BODIPY-labeled fluorescent tracer, CBL-B. As to conditions: geometric mean of the number of tests, read-out: CBL-B Ki (nM) GMean. The procedure, abridged: as §1
Background: TR-FRET usually uses a lanthanide donor and a delayed reading to cut background.

Molecules are shown by their SMILES.

The source of these data is patent publication US20260125375A1 (Pfizer Inc., priority 2022, published 2026).

Regarding `C[C@H](N[C@H]1CCOC1)c1nc(C(F)(F)F)cc2c(-c3cccc([C@H](c4nncn4C)C4CCC4)c3)n[nH]c12` (single isomer, unassigned) [Example C2], the Kd (usually the free concentration of one partner at which half of the binding sites on the other are occupied at equilibrium, for simple one-to-one binding) at WT CBL-B (36-427) turned out to be 2.5 nM. Moreover, the results for the Ki at C-CBL (residues 46-435) and on CBL-B (residues 36-427) were 55.6 nM and 3.9 nM, respectively.
For the compound `C[C@@H](N[C@H]1CCOC1)c1nc(C(F)(F)F)cc2c(-c3cccc([C@H](c4nncn4C)C4CCC4)c3)n[nH]c12` (single isomer, unassigned) [Example C3], the dissociation constant Kd at WT CBL-B (36-427) was determined as 5.6 nM. Also, the inhibition constant Ki – broadly, a measure of affinity in units of concentration, obtained from inhibition or displacement – at C-CBL (residues 46-435) is 52.1 nM; on CBL-B (residues 36-427) it was 7.8 nM.
As to `C[C@H](NC1CCCC1)c1nc(C(F)(F)F)cc2c(-c3cccc([C@H](c4nncn4C)C4CCC4)c3)n[nH]c12` (single isomer, unassigned) [Example C10], the Kd at WT CBL-B (36-427) was determined as 11.5 nM. The inhibitory constant (Ki) at C-CBL (residues 46-435) worked out at 108 nM; at CBL-B (residues 36-427), 11.4 nM.
In the same order, the values of `C[C@@H](NC1CCCC1)c1nc(C(F)(F)F)cc2c(-c3cccc([C@H](c4nncn4C)C4CCC4)c3)n[nH]c12` (single isomer, unassigned) [Example C11] are 0.9 nM, 3.7 nM and 0.6 nM.
In the same order, the values of `C[C@H](N[C@H]1CCC(F)(F)C1)c1nc(C(F)(F)F)cc2c(-c3cccc(C4(Cc5nncn5C)COC4)c3)n[nH]c12` (single isomer, unassigned) [Example C12] are 0.8 nM, 1.3 nM and 0.9 nM.
As to `C[C@@H](N[C@H]1CCC(F)(F)C1)c1nc(C(F)(F)F)cc2c(-c3cccc(C4(Cc5nncn5C)COC4)c3)n[nH]c12` (single isomer, unassigned) [Example C13], the dissociation constant (Kd) on WT CBL-B (36-427) was found to be 2.8 nM. Also, the Ki on C-CBL (residues 46-435) was 8 nM; on CBL-B (residues 36-427), 2.3 nM.
On to `C[C@@H](NC1CCCC1)c1nc(C(F)(F)F)cc2c(-c3cccc(C4(Cc5nncn5C)COC4)c3)n[nH]c12` (single isomer, unassigned) [Example C15], for which, on WT CBL-B (36-427), the Kd is 5.6 nM. Further, the Ki was determined as 42.1 nM on C-CBL (residues 46-435) and 8.9 nM at CBL-B (residues 36-427).
On the same counts, the results for `C[C@H](N[C@@H]1CCC(F)(F)C1)c1nc(C(F)(F)F)cc2c(-c3cccc(C4(Cc5nncn5C)COC4)c3)n[nH]c12` (single isomer, unassigned) [Example C17] are 1.8 nM, 24.8 nM and 4 nM.
In the case of `C[C@@H](N[C@@H]1CCC(F)(F)C1)c1nc(C(F)(F)F)cc2c(-c3cccc(C4(Cc5nncn5C)COC4)c3)n[nH]c12` (single isomer, unassigned) [Example C18], the Kd at WT CBL-B (36-427) came out at 0.7 nM. Further, the inhibitory constant (Ki) at C-CBL (residues 46-435) came to 15.1 nM; on CBL-B (residues 36-427) it was 2.2 nM.
Regarding `CC(c1nc(C(F)(F)F)cc2c(-c3cccc(C4(Cc5nncn5C)COC4)c3)n[nH]c12)N1CCC[C@H](C)C1` (single isomer, unassigned) [Example C19], the Kd on WT CBL-B (36-427) stood at 2.4 nM. The inhibition constant Ki was 61.3 nM on C-CBL (residues 46-435) and 10.8 nM at CBL-B (residues 36-427).
`CC(c1nc(C(F)(F)F)cc2c(-c3cccc(C4(Cc5nncn5C)COC4)c3)n[nH]c12)N1CCC[C@H](C)C1` (single isomer, unassigned) [Example C20]: the Kd at WT CBL-B (36-427) turned out to be 1.2 nM. The Ki stood at 16.9 nM at C-CBL (residues 46-435) and 2.4 nM at CBL-B (residues 36-427).
Turning to `CC(c1nc(C(F)(F)F)cc2c(-c3cccc(C4(Cc5nncn5C)COC4)c3)n[nH]c12)N1CCCCC1` (single isomer, unassigned) [Example C21, 3-(3-{3-[(4-methyl-4H-1,2,4-triazol-3-yl)methyl]oxetan-3-yl}phenyl)-7-[(1ξ)-1-(piperidin-1-yl)ethyl]-5-(trifluoromethyl)-1H-pyrazolo[3,4-c]pyridine], the Kd at WT CBL-B (36-427) turned out to be 13.7 nM. Besides, the Ki at C-CBL (residues 46-435) turned out to be 93.5 nM; on CBL-B (residues 36-427), 21.3 nM.
For `CC(c1nc(C(F)(F)F)cc2c(-c3cccc(C4(Cc5nncn5C)COC4)c3)n[nH]c12)N1CCCCC1` (single isomer, unassigned) [Example C22, 3-(3-{3-[(4-methyl-4H-1,2,4-triazol-3-yl)methyl]oxetan-3-yl}phenyl)-7-[(1ξ)-1-(piperidin-1-yl)ethyl]-5-(trifluoromethyl)-1H-pyrazolo[3,4-c]pyridine], the Kd at WT CBL-B (36-427) was 8.2 nM. Moreover, the Ki on C-CBL (residues 46-435) was 133 nM; at CBL-B (residues 36-427) it was 24.1 nM.
Consider `CC(c1nc(C(F)(F)F)cc2c(-c3cccc(C4(Cc5nncn5C)COC4)c3)n[nH]c12)N1CCOCC1` (single isomer, unassigned) [Example C23, 3-(3-{3-[(4-methyl-4H-1,2,4-triazol-3-yl)methyl]oxetan-3-yl}phenyl)-7-[(1ξ)-1-(morpholin-4-yl)ethyl]-5-(trifluoromethyl)-1H-pyrazolo[3,4-c]pyridine], for which, on WT CBL-B (36-427), the dissociation constant (Kd) was 5.1 nM. Besides, the inhibitory constant (Ki) came out at 24.8 nM at C-CBL (residues 46-435) and 5.7 nM on CBL-B (residues 36-427).
For the compound `CC(c1nc(C(F)(F)F)cc2c(-c3cccc(C4(Cc5nncn5C)COC4)c3)n[nH]c12)N1CCOCC1` (single isomer, unassigned) [Example C24, 3-(3-{3-[(4-methyl-4H-1,2,4-triazol-3-yl)methyl]oxetan-3-yl}phenyl)-7-[(1ξ)-1-(morpholin-4-yl)ethyl]-5-(trifluoromethyl)-1H-pyrazolo[3,4-c]pyridine], the Kd on WT CBL-B (36-427) was found to be 16.9 nM. For the same compound, the Ki at C-CBL (residues 46-435) stood at 134 nM; at CBL-B (residues 36-427), 28.3 nM.
Consider `CC(c1nc(C(F)(F)F)cc2c(-c3cccc(C4(Cc5nncn5C)COC4)c3)n[nH]c12)N1C[C@@H](F)[C@H](F)C1` (single isomer, unassigned) [Example C25], for which the Kd at WT CBL-B (36-427) was 1.8 nM. Also, the Ki on C-CBL (residues 46-435) came to 33.1 nM; on CBL-B (residues 36-427), 6.5 nM.
For `C[C@H](c1nc(C(F)(F)F)cc2c(-c3cccc(C4(Cc5nncn5C)COC4)c3)n[nH]c12)N1C[C@@H](F)[C@H](F)C1` (single isomer, unassigned) [Example C26], the Kd on WT CBL-B (36-427) is 13.2 nM. In addition, the Ki on C-CBL (residues 46-435) stood at 198 nM; on CBL-B (residues 36-427), 40.5 nM.
With `CC(NC1CNC1)c1nc(C(F)(F)F)cc2c(-c3cccc(C4(Cc5nncn5C)COC4)c3)n[nH]c12` (single isomer, unassigned) [Example C27, N-{(1ξ)-1-[3-(3-{3-[(4-methyl-4H-1,2,4-triazol-3-yl)methyl]oxetan-3-yl}phenyl)-5-(trifluoromethyl)-1H-pyrazolo[3,4-c]pyridin-7-yl]ethyl}azetidin-3-amine], the Kd at WT CBL-B (36-427) was 8.7 nM. Besides, the Ki at C-CBL (residues 46-435) was determined as 76 nM; at CBL-B (residues 36-427) it was 31.4 nM.
On the same counts, the results for `CC(NC1CNC1)c1nc(C(F)(F)F)cc2c(-c3cccc(C4(Cc5nncn5C)COC4)c3)n[nH]c12` (single isomer, unassigned) [Example C28, N-{(1ξ)-1-[3-(3-{3-[(4-methyl-4H-1,2,4-triazol-3-yl)methyl]oxetan-3-yl}phenyl)-5-(trifluoromethyl)-1H-pyrazolo[3,4-c]pyridin-7-yl]ethyl}azetidin-3-amine] are 17.3 nM, 114 nM and 33.4 nM.
As to `CC1CN(Cc2nc(C(F)(F)F)cc3c(-c4cccc(C5(Cc6nncn6C)COC5)c4)n[nH]c23)CCC1(F)F` (single isomer, unassigned) [Example C31, 7-{[(3ξ)-4,4-difluoro-3-methylpiperidin-1-yl]methyl}-3-(3-{3-[(4-methyl-4H-1,2,4-triazol-3-yl)methyl]oxetan-3-yl}phenyl)-5-(trifluoromethyl)-1H-pyrazolo[3,4-c]pyridine], the dissociation constant (Kd) on WT CBL-B (36-427) worked out at 4.7 nM. Further, the results for the Ki on C-CBL (residues 46-435) and on CBL-B (residues 36-427) were 112 nM and 21.7 nM, respectively.
As to `CC1CN(Cc2nc(C(F)(F)F)cc3c(-c4cccc(C5(Cc6nncn6C)COC5)c4)n[nH]c23)CCC1(F)F` (single isomer, unassigned) [Example C32, 7-{[(3ξ)-4,4-difluoro-3-methylpiperidin-1-yl]methyl}-3-(3-{3-[(4-methyl-4H-1,2,4-triazol-3-yl)methyl]oxetan-3-yl}phenyl)-5-(trifluoromethyl)-1H-pyrazolo[3,4-c]pyridine], the dissociation constant Kd at WT CBL-B (36-427) was found to be 0.8 nM. Besides, the Ki amounted to 55.6 nM at C-CBL (residues 46-435) and 6.7 nM at CBL-B (residues 36-427).
On to `CC(C)NC(C)c1nc(C(F)(F)F)cc2c(-c3cccc([C@H](c4nncn4C)C4CCC4)c3)n[nH]c12` (single isomer, unassigned) [Example C34], for which the Kd on WT CBL-B (36-427) is 5.2 nM. The figures for the Ki on C-CBL (residues 46-435) and at CBL-B (residues 36-427) were 88.5 nM and 8.9 nM, respectively.
On to `CC(C)NC(C)c1nc(C(F)(F)F)cc2c(-c3cccc([C@H](c4nncn4C)C4CCC4)c3)n[nH]c12` (single isomer, unassigned) [Example C35], for which the dissociation constant Kd on WT CBL-B (36-427) came out at 2.8 nM. Further, the Ki amounted to 29.1 nM on C-CBL (residues 46-435) and 3.1 nM at CBL-B (residues 36-427).
